pKi: −log10 of the molar value. Where two headings read alike, the source gives them in different places.
Key:
[1] = tested on: H929 human cancer cell lines; assay: Cellular viability / proliferation (Cell TiterGlo, 72 h); type: cell-based
In short: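 Compounds were added as 2-fold serial dilutions from 50 μM (final DMSO <1%) to H929 cells seeded 1,000 per well in 10% FBS medium one day earlier.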

[2] = target: Mcl-1 (Homo sapiens (Human), UniProt Q07820); assay: Fluorescence polarization anisotropy (FPA) competition assay, FITC-Bak or FITC-Bim BH3 peptide; type: binding; conditions: read-out: Ki for Inhibition of Mcl-1 by FPA assay
[3] = Homo sapiens, NCI-H929, 72 h, read-out: GI50 on cellular proliferation of H929 human cancer cell lines, H929 cells, 72 h, Cell TiterGlo, 10% FBS

Mcl-1, sequence (Q07820 172-327): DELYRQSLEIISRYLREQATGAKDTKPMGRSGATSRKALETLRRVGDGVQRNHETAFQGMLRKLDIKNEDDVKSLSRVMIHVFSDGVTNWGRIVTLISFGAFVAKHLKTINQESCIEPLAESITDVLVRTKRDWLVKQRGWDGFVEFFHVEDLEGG

| Structure (SMILES) | GI50 [1, 3] [nM] | pKi [2] | GI50 ([1]; H929 cells, 72 h, Cell TiterGlo, 10% FBS, read-out: GI50 on cellular proliferation of H929 human cancer cell lines) [nM] |
| --- | --- | --- | --- |
| Cc1cc(OCCCc2c3n(c4c(-c5c(C)nn(C)c5C)c(Cl)ccc24)[C@H](C)CN(c2cn(C)c4ccc(-c5cccnn5)cc24)C3=O)cc(C)c1Cl [Example 424, (R)-7-Chloro-10-(3-(4-chloro-3,5-dimethylphenoxy)propyl)-4-methyl-2-(1-methyl-5-(pyridazin-3-yl)-1H-indol-3-yl)-6-(1,3,5-trimethyl-1H-pyrazol-4-yl)-3,4-dihydropyrazino[1,2-a]indol-1(2H)-one] | 1300 | 8.59 | – |
| Cc1cc(OCCCc2c3n(c4c(-c5c(C)nn(C)c5C)c(Cl)ccc24)[C@H](C)CN(c2ccc4c(C(=O)O)cn(C)c4c2)C3=O)cc(C)c1Cl [Example 79, (R)-6-(7-Chloro-10-(3-(4-chloro-3,5-dimethylphenoxy)propyl)-4-methyl-1-oxo-6-(1,3,5-trimethyl-1H-pyrazol-4-yl)-3,4-dihydropyrazino[1,2-a]indol-2(1H)-yl)-1-methyl-1H-indole-3-carboxylic acid] | 1500 | > 9.00 | – |
| Cc1nc(Cn2c(C(=O)O)cc3cccc(N4C[C@@H](C)n5c(c(CCCOc6cc(C)c(Cl)c(C)c6)c6ccc(Cl)c(-c7c(C)nn(C)c7C)c65)C4=O)c32)no1 [Example 314, 7-[(4R)-7-chloro-10-[3-(4-chloro-3,5-dimethyl-phenoxy)propyl]-4-methyl-1-oxo-6-(1,3,5-trimethylpyrazol-4-yl)-3,4-dihydropyrazino[1,2-a]indol-2-yl]-1-[(5-methyl-1,2,4-oxadiazol-3-yl)methyl]indole-2-carboxylic acid] | 930 | > 9.00 | – |
| Cc1cc(OCCCc2c3n(c4c(-c5c(C)nn(C)c5C)c(Cl)ccc24)[C@H](C)CN(c2cccc4cc(C(=O)O)n(Cc5cscn5)c24)C3=O)cc(C)c1Cl [Example 304, 7-[(4R)-7-chloro-10-[3-(4-chloro-3,5-dimethyl-phenoxy)propyl]-4-methyl-1-oxo-6-(1,3,5-trimethylpyrazol-4-yl)-3,4-dihydropyrazino[1,2-a]indol-2-yl]-1-(thiazol-4-ylmethyl)indole-2-carboxylic acid] | 370 | > 9.00 | – |
| Cc1cc(OCCCc2c3n(c4c(-c5c(C)nn(C)c5C)c(Cl)ccc24)[C@H](C)CN(c2ccc(O)c4cc(C(=O)O)n(C)c24)C3=O)cc(C)c1Cl [Example 321, (M, R)-7-(7-Chloro-10-(3-(4-chloro-3,5-dimethylphenoxy)propyl)-4-methyl-1-oxo-6-(1,3,5-trimethyl-1H-pyrazol-4-yl)-3,4-dihydropyrazino[1,2-a]indol-2(1H)-yl)-4-hydroxy-1-methyl-1H-indole-2-carboxylic acid] | – | > 9.00 | 1400 |
| Cc1cc(OCCCc2c3n(c4c(-c5c(C)nn(C)c5C)c(Cl)ccc24)[C@H](C)CN(c2cccc4c(C(=O)O)cccc24)C3=O)cc(C)c1Cl [Example 63, (R)-5-(7-Chloro-10-(3-(4-chloro-3,5-dimethylphenoxy)propyl)-4-methyl-1-oxo-6-(1,3,5-trimethyl-1H-pyrazol-4-yl)-3,4-dihydropyrazino[1,2-a]indol-2(1H)-yl)-1-naphthoic acid] | 270 | > 9.00 | – |
| Cc1cc(OCCCc2c3n(c4c(-c5c(C)nn(C)c5C)c(Cl)ccc24)[C@H](C)CN(c2cccc4cc(C(=O)O)n(CC5CC5)c24)C3=O)cc(C)c1Cl [Example 254, 7-[(4R)-7-chloro-10-[3-(4-chloro-3,5-dimethyl-phenoxy)propyl]-4-methyl-1-oxo-6-(1,3,5-trimethylpyrazol-4-yl)-3,4-dihydropyrazino[1,2-a]indol-2-yl]-1-(cyclopropylmethyl)indole-2-carboxylic acid] | 580 | > 9.00 | – |
| Cc1cc(OCCCc2c3n(c4c(-c5c(C)nn(C)c5C)c(Cl)ccc24)[C@H](C)CN(c2cccc4cc(C(=O)O)n(CC5COC5)c24)C3=O)cc(C)c1Cl [Example 383, (R)-7-(7-Chloro-10-(3-(4-chloro-3,5-dimethylphenoxy)propyl)-4-methyl-1-oxo-6-(1,3,5-trimethyl-1H-pyrazol-4-yl)-3,4-dihydropyrazino[1,2-a]indol-2(1H)-yl)-1-(oxetan-3-ylmethyl)-1H-indole-2-carboxylic acid] | 1500 | 8.59 | – |
| Cc1cc(OCCCc2c3n(c4c(-c5c(C)nn(C)c5C)c(Cl)ccc24)CCCN(c2cc(C(=O)O)c4ccn(CCN5CCOCC5)c4c2)C3=O)cc(C)c1Cl [Example 31, 6-(8-chloro-11-(3-(4-chloro-3,5-dimethylphenoxy)propyl)-1-oxo-7-(1,3,5-trimethyl-1H-pyrazol-4-yl)-4,5-dihydro-1H-[1,4]diazepino[1,2-a]indol-2(3H)-yl)-1-(2-morpholinoethyl)-1H-indole-4-carboxylic acid] | 1800 | > 9.00 | – |
| Cc1cc(N2C[C@@H](C)n3c(c(CCCOc4cc(C)c(Cl)c(C)c4)c4ccc(Cl)c(-c5c(C)ncnc5C)c43)C2=O)c2c(c1)cc(C(N)=O)n2Cc1ccccn1 [Example 379, (R)-7-(7-chloro-10-(3-(4-chloro-3,5-dimethylphenoxy)propyl)-6-(4,6-dimethylpyrimidin-5-yl)-4-methyl-1-oxo-3,4-dihydropyrazino[1,2-a]indol-2(1H)-yl)-5-methyl-1-(pyridin-2-ylmethyl)-1H-indole-2-carboxamide] | 560 | 8.44 | – |
| Cc1cc(OCCCc2c3n(c4c(-c5c(C)nn(C)c5C)c(Cl)ccc24)CCCN(c2ccc4c(C(=O)O)cn(C)c4c2)C3=O)cc(C)c1Cl [Example 81, 6-(8-Chloro-11-(3-(4-chloro-3,5-dimethylphenoxy)propyl)-1-oxo-7-(1,3,5-trimethyl-1H-pyrazol-4-yl)-4,5-dihydro-1H-[1,4]diazepino[1,2-a]indol-2(3H)-yl)-1-methyl-1H-indole-3-carboxylic acid] | 2900 | 8.62 | – |
| Cc1cc(OCCCc2c3n(c4c(-c5c(C)nn(C)c5C)c(Cl)ccc24)[C@H](C)CN(c2cccc4c(C(=O)O)nn(C)c24)C3=O)cc(C)c1Cl [Example 59, (R)-7-(7-chloro-10-(3-(4-chloro-3,5-dimethylphenoxy)propyl)-4-methyl-1-oxo-6-(1,3,5-trimethyl-1H-pyrazol-4-yl)-3,4-dihydropyrazino[1,2-a]indol-2(1H)-yl)-1-methyl-1H-indazole-3-carboxylic acid] | 280 | > 9.00 | – |
| Cc1cc(OCCCc2c3n(c4c(-c5c(C)nn(C)c5C)c(Cl)ccc24)[C@H](C)CN(c2cccc4c(C)c(C(=O)O)n(C)c24)C3=O)cc(C)c1Cl [Example 316, (R)-7-(7-Chloro-10-(3-(4-chloro-3,5-dimethylphenoxy)propyl)-4-methyl-1-oxo-6-(1,3,5-trimethyl-1H-pyrazol-4-yl)-3,4-dihydropyrazino[1,2-a]indol-2(1H)-yl)-1,3-dimethyl-1H-indole-2-carboxylic acid] | 470 | > 9.00 | – |
| Cc1cc(OCCCc2c3n(c4c(-c5c(C)ncnc5C)c(Cl)ccc24)CCCN(c2cn(C)c4cc(C(=O)O)ccc24)C3=O)cc(C)c1Cl [Example 176, 3-[8-Chloro-11-[3-(4-chloro-3,5-dimethyl-phenoxy)propyl]-7-(4,6-dimethylpyrimidin-5-yl)-1-oxo-4,5-dihydro-3H-[1,4]diazepino[1,2-a]indol-2-yl]-1-methyl-indole-6-carboxylic acid] | 410 | > 9.00 | – |
| Cc1cc(OCCCc2c3n(c4c(-c5c(C)nn(C)c5C)c(Cl)ccc24)[C@H](C)CN(c2cn(C)c4ccc(-c5ncn(CC(C)C)n5)cc24)C3=O)cc(C)c1Cl [Example 454, (R)-7-Chloro-10-(3-(4-chloro-3,5-dimethylphenoxy)propyl)-2-(5-(1-isobutyl-1H-1,2,4-triazol-3-yl)-1-methyl-1H-indol-3-yl)-4-methyl-6-(1,3,5-trimethyl-1H-pyrazol-4-yl)-3,4-dihydropyrazino[1,2-a]indol-1(2H)-one] | 2100 | 8.46 | – |
| Cc1cc(OCCCc2c3n(c4c(-c5c(C)nn(C)c5C)c(Cl)ccc24)[C@H](C)CN(c2cccc4cc(C(=O)O)n(Cc5ccncc5)c24)C3=O)cc(C)c1Cl [Example 248, 7-[(4R)-7-chloro-10-[3-(4-chloro-3,5-dimethyl-phenoxy)propyl]-4-methyl-1-oxo-6-(1,3,5-trimethylpyrazol-4-yl)-3,4-dihydropyrazino[1,2-a]indol-2-yl]-1-(4-pyridylmethyl)indole-2-carboxylic acid] | 570 | > 9.00 | – |
| COc1cc(C(=O)O)nc2c(N3C[C@@H](C)n4c(c(CCCOc5cc(C)c(Cl)c(C)c5)c5ccc(Cl)c(-c6c(C)nn(C)c6C)c54)C3=O)cccc12 [Example 239, (R)-8-(7-Chloro-10-(3-(4-chloro-3,5-dimethylphenoxy)propyl)-4-methyl-1-oxo-6-(1,3,5-trimethyl-1H-pyrazol-4-yl)-3,4-dihydropyrazino[1,2-a]indol-2(1H)-yl)-4-methoxyquinoline-2-carboxylic acid] | 1800 | > 9.00 | – |
| Cc1cc(OCCCc2c3n(c4c(-c5c(C)nn(CCN6CCCC6)c5C)c(Cl)ccc24)[C@H](C)CN(c2cn(C)c4cc(C(=O)O)ccc24)C3=O)cc(C)c1Cl [Example 306, (R)-3-(7-chloro-10-(3-(4-chloro-3,5-dimethylphenoxy)propyl)-6-(3,5-dimethyl-1-(2-(pyrrolidin-1-yl)ethyl)-1H-pyrazol-4-yl)-4-methyl-1-oxo-3,4-dihydropyrazino[1,2-a]indol-2(1H)-yl)-1-methyl-1H-indole-6-carboxylic acid] | 600 | 8.89 | – |
| Cc1cc(OCCCc2c3n(c4c(-c5c(C)nn(C)c5C)c(Cl)ccc24)[C@H](C)CN(c2cn(C)c4cc(C(N)=O)ccc24)C3=O)cc(C)c1Cl [Example 277, 3-[(4R)-7-chloro-10-[3-(4-chloro-3,5-dimethyl-phenoxy)propyl]-4-methyl-1-oxo-6-(1,3,5-trimethylpyrazol-4-yl)-3,4-dihydropyrazino[1,2-a]indol-2-yl]-1-methyl-indole-6-carboxamide] | 1400 | 8.18 | – |
